In one series the target is Histone deacetylase 1 (Homo sapiens, UniProt Q13547). Briefly: Inhibition of HDAC1 (unknown origin) using Ac-peptide as substrate preincubated for 15 mins followed by substrate addition by fluorescence assay.
The target in another series is Histone deacetylase 2 (Homo sapiens, UniProt Q92769).
The subject of series [1] is MGC-803. Briefly: Induction of apoptosis in human MGC-803 cells assessed as apoptotic cells at 5 uM incubated for 48 hrs by annexin V-FITC and PI staining based flowcytometry analysis (Rvb =4.3 %). Format: functional.
In the next series the target is CYP2C19 (Homo sapiens, UniProt P33261). Briefly: Inhibition of CYP2C19 (unknown origin) at 10 uM using S-mephenytoin as substrate relative to control. Format: ADME. As to conditions: probe S-mephenytoin.
CYP2C19, sequence (P33261 whole entry): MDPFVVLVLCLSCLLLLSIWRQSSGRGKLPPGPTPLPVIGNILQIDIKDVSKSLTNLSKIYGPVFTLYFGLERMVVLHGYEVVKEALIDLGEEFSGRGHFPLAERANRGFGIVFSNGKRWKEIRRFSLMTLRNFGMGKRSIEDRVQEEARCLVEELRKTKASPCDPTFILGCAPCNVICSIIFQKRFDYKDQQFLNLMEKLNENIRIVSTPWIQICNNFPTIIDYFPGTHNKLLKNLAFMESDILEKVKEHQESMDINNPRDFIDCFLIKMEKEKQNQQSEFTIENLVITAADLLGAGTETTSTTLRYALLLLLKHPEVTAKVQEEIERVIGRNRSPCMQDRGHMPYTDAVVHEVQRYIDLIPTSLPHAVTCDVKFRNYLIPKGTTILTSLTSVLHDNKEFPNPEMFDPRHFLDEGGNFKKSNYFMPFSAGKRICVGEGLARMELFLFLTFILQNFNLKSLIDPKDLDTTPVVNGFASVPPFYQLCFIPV
The next series deals with CYP3A4 (Homo sapiens, UniProt P08684). Briefly: Inhibition of CYP3A4 (unknown origin) at 10 uM using testosterone as substrate relative to control. The conditions noted are these: probe testosterone. Format: ADME.
CYP3A4, sequence (P08684 whole entry): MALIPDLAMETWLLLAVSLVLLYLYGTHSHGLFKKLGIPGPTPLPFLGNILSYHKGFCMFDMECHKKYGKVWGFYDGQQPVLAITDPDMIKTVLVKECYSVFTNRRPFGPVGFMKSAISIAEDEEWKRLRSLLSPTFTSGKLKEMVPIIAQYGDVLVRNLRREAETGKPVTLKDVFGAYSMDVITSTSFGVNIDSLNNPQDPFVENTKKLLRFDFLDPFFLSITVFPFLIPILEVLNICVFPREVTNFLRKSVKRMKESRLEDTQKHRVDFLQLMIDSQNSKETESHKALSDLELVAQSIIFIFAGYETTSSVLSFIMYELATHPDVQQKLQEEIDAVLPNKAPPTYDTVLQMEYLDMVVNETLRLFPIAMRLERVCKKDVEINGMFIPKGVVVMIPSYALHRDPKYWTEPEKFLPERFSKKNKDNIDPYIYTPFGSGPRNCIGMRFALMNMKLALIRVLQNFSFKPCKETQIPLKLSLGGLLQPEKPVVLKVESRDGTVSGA
Series [2] can be described thus: Metabolic stability in human liver microsomes assessed as intrinsic clearance in presence of NADPH at 1 uM by LC-MS/MS analysis. Format: ADME, Microsome. As to conditions: read-out: CLH.
The test system of series [3] is MGC-803. The series can be described thus: Inhibition of colony formation in human MGC-803 cells assessed as reduction in colony formation at 0.2 to 0.6 uM measured after 7 days by crystal violet staining based microscopic analysis. The conditions noted are these: dose 0.2-0.6 µM, time 7.0 day. In kind it is functional, cell-based.
Series [4] deals with MGC-803. Briefly: Inhibition of cell migration in human MGC-803 cells 0.2 to 0.6 uM up to 24 hrs by Hoechst 33258 staining based transwell migration assay. In kind it is functional. The conditions noted are these: dose 0.2-0.6 µM, time hrs <=24.
The subject of series [5] is MGC-803. The series can be described thus: Inhibition of cell migration in human MGC-803 cells assessed as downregulation of Vimentin at 0.2 to 0.6 uM for 48 hrs by western blot analysis. In kind it is functional, cell-based. As to conditions: dose 0.2-0.6 µM. A general note: In western blotting, separated proteins are transferred to a membrane and probed.
Series [6] deals with MGC-803. The series can be described thus: Inhibition of cell migration in human MGC-803 cells assessed as upregulation of ZO-1 at 0.2 to 0.6 uM for 48 hrs by western blot analysis. Format: functional, cell-based. As to conditions: dose 0.2-0.6 µM.
The subject of series [7] is MGC-803. Briefly: Inhibition of cell migration in human MGC-803 cells assessed as upregulation of E-cadherin at 0.2 to 0.6 uM for 48 hrs by western blot analysis. In kind it is functional, cell-based. As to conditions: dose 0.2-0.6 µM.
A further series deals with AGS. Briefly: cells. The conditions noted are these: Homo sapiens, 72 h.
For a further series, the system named is BGC-823. The series can be described thus: cells. The conditions noted are these: Homo sapiens, BGC-823, 72 h.
The subject of the next series is MKN-1. The series can be described thus: cells. As to conditions: Homo sapiens, MKN-1, 72 h.
For a further series, the system named is MKN-45. The series can be described thus: cells. As to conditions: Homo sapiens, MKN-45, 72 h.
In the next series the test system is NCI-N87. The series can be described thus: cells. The conditions noted are these: Homo sapiens, NCI-N87, 72 h.
For the next series, the system named is SNU1. Briefly: cells. As to conditions: Homo sapiens, SNU1, 72 h.
The subject of series [8] is MGC-803. The series can be described thus: Inhibition of colony formation in human MGC-803 cells assessed as reduction in colony formation at 4 to 8 uM measured after 7 days by crystal violet staining based microscopic analysis. Format: functional, cell-based. The conditions noted are these: dose 4-8 µM, time 7.0 day.
The subject of series [9] is MGC-803. Briefly: Inhibition of cell migration in human MGC-803 cells at 2 to 8 uM up to 24 hrs by wound healing assay. Format: functional, cell-based. The conditions noted are these: dose 2-8 µM, time hrs <=24.
The subject of series [10] is MGC-803. Briefly: Inhibition of cell migration in human MGC-803 cells 4 to 8 uM up to 24 hrs by Hoechst 33258 staining based transwell migration assay. The conditions noted are these: dose 4-8 µM, time hrs <=24. In kind it is functional.
Series [11] deals with MGC-803. The series can be described thus: Inhibition of cell migration in human MGC-803 cells assessed as downregulation of Vimentin at 2 to 8 uM for 48 hrs by western blot analysis. In kind it is functional, cell-based. As to conditions: dose 2-8 µM.
For series [12], the system named is MGC-803. Briefly: Inhibition of cell migration in human MGC-803 cells assessed as upregulation of ZO-1 at 2 to 8 uM for 48 hrs by western blot analysis. Format: functional, cell-based. The conditions noted are these: dose 2-8 µM.
For series [13], the system named is MGC-803. The series can be described thus: Inhibition of cell migration in human MGC-803 cells assessed as upregulation of E-cadherin at 2 to 8 uM for 48 hrs by western blot analysis. The conditions noted are these: dose 2-8 µM. In kind it is functional, cell-based.

Active and inactive are the calls of the source. No cut-off for these calls is given here.

Histone deacetylase 1, sequence (Q13547 whole entry): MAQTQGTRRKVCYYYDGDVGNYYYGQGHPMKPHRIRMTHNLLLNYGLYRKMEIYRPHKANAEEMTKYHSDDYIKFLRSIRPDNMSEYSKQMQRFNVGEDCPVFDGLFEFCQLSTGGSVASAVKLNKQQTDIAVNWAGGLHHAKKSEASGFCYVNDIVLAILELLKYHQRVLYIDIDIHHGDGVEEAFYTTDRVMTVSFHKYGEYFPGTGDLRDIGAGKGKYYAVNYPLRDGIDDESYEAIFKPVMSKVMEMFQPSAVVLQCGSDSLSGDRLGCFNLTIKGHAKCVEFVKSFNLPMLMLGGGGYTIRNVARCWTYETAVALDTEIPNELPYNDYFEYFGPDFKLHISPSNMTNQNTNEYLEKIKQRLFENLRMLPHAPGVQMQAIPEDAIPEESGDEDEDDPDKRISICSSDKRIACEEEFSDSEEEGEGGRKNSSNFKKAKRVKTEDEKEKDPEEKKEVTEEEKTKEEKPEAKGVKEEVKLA
Histone deacetylase 2, sequence (Q92769 whole entry): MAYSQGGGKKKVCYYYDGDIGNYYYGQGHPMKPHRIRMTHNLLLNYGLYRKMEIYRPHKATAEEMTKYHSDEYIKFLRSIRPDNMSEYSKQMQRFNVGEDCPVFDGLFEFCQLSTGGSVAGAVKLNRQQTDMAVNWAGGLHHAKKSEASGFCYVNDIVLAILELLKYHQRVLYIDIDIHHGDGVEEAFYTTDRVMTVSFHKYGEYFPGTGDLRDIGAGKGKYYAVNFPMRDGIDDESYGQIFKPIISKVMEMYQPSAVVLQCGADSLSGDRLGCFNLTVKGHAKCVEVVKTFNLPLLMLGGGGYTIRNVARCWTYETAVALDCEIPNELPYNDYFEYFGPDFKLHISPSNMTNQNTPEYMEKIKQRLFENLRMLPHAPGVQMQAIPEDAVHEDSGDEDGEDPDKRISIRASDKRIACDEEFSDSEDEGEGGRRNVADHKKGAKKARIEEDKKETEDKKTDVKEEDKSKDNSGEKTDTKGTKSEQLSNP

With `Cc1ccc(-c2cc(/C=C/c3ccc(C(=O)NO)cc3)ccn2)c(F)c1`, the IC50 was determined as 0.37 µM at Histone deacetylase 1; 0.404 µM against Histone deacetylase 2; 1.56 µM with AGS; 1.5 µM with BGC-823; 0.4 µM in the series on MKN-1; 1.16 µM in the series on MKN-45. Besides, the IC50 in the series with NCI-N87 is 0.23 µM; with SNU1, 1.01 µM. In the series with MGC-803 [1], the Activity is listed as 82.2%. Also, the inhibition at 10 µM against CYP2C19 was determined as 22.8%; on CYP3A4 it was 47.6%. Further, the microsomal CLint at 1 µM in [2] turned out to be 67.4 µL/min/mg. Further, the inhibition result in the series on MGC-803 [3] and in the series on MGC-803 [4] was “Dose-Dependent Effect” each time. Also, the result in the series on MGC-803 [5], with MGC-803 [6] and in the series with MGC-803 [7] was Active.

In the case of `O=C(NO)c1ccc(/C=C/c2ccnc(-c3ccccc3O)c2)cc1`, the IC50 on Histone deacetylase 1 is 0.22 µM. Besides, the Activity with MGC-803 [1] is 71.9%; in the series with MGC-803 [8], “Dose-Dependent Effect”. The inhibition result in the series on MGC-803 [9] and in the series with MGC-803 [10] was “Dose-Dependent Effect” throughout. The outcome in the series with MGC-803 [11], in the series on MGC-803 [12] and in the series on MGC-803 [13] was Active. In addition, the inhibition at 10 µM on CYP2C19 was determined as 18.7%; at CYP3A4 it was 87.9%. In addition, the microsomal CLint at 1 µM in series [2] came to 105 µL/min/mg.

By IC50 is commonly meant the concentration at which inhibition is half-maximal. High values mean weaker potency in that assay, low ones greater potency in that assay. What is called inhibition is how much of the control response was suppressed.

The values above are taken from ChEMBL document CHEMBL5038581, “Design, synthesis, and biological evaluation of novel dual inhibitors targeting lysine specific demethylase 1 (LSD1) and histone deacetylases (HDAC) for treatment of gastric cancer” (Eur J Med Chem, 2021).
